According to patent publication US12583817B2, “Ionizable lipids and compositions and uses thereof” (Massachusetts Institute of Technology, priority 2021, dated 2026):
Entries after “also recorded” stand apart in the source; their conditions may differ.

Legend:
mouse lung = experiment: Nebulized FFL mRNA delivery to mice, lung bioluminescence (IVIS); assay type: in vivo, C57BL/6 mice; details: for Nebulized lung delivery compared between lipids/NPs: 1 mg dose via nose cone, 6 hr, T1-5 formulated with bPEG20K and NaAc; for In vivo performance via nebulization vs C12-200: 1 mg mRNA dose (FIG. 6A); for Nebulized delivery in NaAc buffer with bPEG20K vs PBS with no excipient: T1-5 LNPs
Protocol: In vivo nebulized delivery. In vivo nebulized delivery of mRNA to C57BL/6 mice (Jackson Laboratory) was performed either in a whole-body exposure chamber or a nose-only exposure chamber (CH Technologies) where specified. LNPs at 0.3 mg/mL of mRNA were loaded into the nebulizer at required volumes with 2% w/v excipients where specified. For the whole-body exposure chamber, the nebulizer was connected to the chamber via a tee and an oxygen flow rate of 15 SCFH was used to direct aerosol into the chamber. For the nose-only exposure chamber, mice were immobilized in restrainers and the restrainers connected to the chamber. A flow rate of 2 SLPM of oxygen was used and pressure within the chamber was maintained at −0.1 din. H2O.
In vivo bioluminescence, 6 h after nebulization, unless otherwise noted, mice were injected intraperitoneally with 0.2 ml XenoLight D-luciferin (10 mg/mL in DPBS, PerkinElmer). For whole-body imaging, mice were anesthetized in a ventilated anesthesia chamber with 2.5% isofluorane in oxygen and imaged 10 min after luciferin injection. Otherwise, mice were sacrificed 10 min after luciferin injection and organs were collected for imaging. Luminescence was measured with an in vivo imaging system (IVIS, PerkinElmer) and quantified using the Living Image software (PerkinElmer).

nose = experiment: Nebulized FFL mRNA delivery to mice, luminescence in nose; assay type: in vivo
[1] = Toxicity study after repeat nebulized dosing (weight, serum ALT/AST); assay type: in vivo, mice; details: repeated nebulized delivery
Protocol: (FIG. 6A). […] To determine whether the protein expression in the lung could be controlled by nebulized dose, a dose-response study of the three LNPs was performed, whereby mice were nebulized with 0.25, 0.5, or 1 mg of mRNA. For all three LNPs, there was an increase in lung luminescence corresponding to increasing dose (FIG. 14A). […] For mRNA protein-replacement therapies to treat pulmonary diseases like cystic fibrosis, repeat dosing of the therapeutic will be required unless genome editing is possible. Therefore, the ability to repeat-dose nebulized LNPs was characterized by administration of 1 mg of FFL mRNA every 72 h, with measurement of lung luminescence 6 h after each nebulization. For all LNPs, no loss in lung luminescence was observed over the course of the three administrations (FIG. 6B). Additionally, repeated delivery of the nebulized LNPs was well tolerated as evidenced by the lack of weight loss (FIG. 27) and normal liver enzyme levels (FIG. 14B) in mice.
Toxicity study, 48 h after the third nebulization of FFL mRNA in the repeat dosing study, mice were bled and sera was isolated using microcentrifugation in BD SST microtainers. Serum was analyzed for ALT and AST levels (Custom lipid panel 62149, IDEXX Bioanalytics).

[2] = tested on: ALI cultures derived from primary human bronchial epithelial cells; details: for mRNA delivery in small and large airway ALI cultures, lipids and tail/headgroup variants: handmixed LNPs, not nebulized; for mRNA delivery to small airway ALI cultures: screen of 12 top-performing A549 LNPs
Protocol: Air-liquid interface (ALI) cultures derived from primary human bronchial epithelial cells were selected. ALI cultures are grown on porous Transwell inserts such that, upon reaching confluence, media can be removed from the top (apical) side of the insert and the cells can be fed from the bottom, basolateral, side (FIG. 12A). This enables recapitulation of the conditions of the native bronchial epithelium, where the apical side of the cells is exposed to the air while the basolateral side is bathed in nutrients.
Primary large airway cells (University of North Carolina at Chapel Hill MLI Tissue Procurement and Cell Culture Core) and primary small airway cells (ATCC) were expanded using PneumaCult-ExPlus (StemCell) according to the instructions for the media and plated for ALI cultures at P3 and P4 respectively.
ALI cultures were plated either onto 0.4 μm pore, 6.5 mm diameter PET Transwell inserts for 24-well plates (Corning) or 0.4 μm pore polycarbonate inserts for 96-well plates (Corning). The 24-well plates were used for histology, the two-week transfection timecourse, and TEER measurements; 96-well plates were used for all other experiments, 33,000 cells/well were seeded in the 24 well inserts and 15,000 cells/well were seeded in the 96-well plate inserts.
Per manufacturer instructions, cultures were grown to confluence with both apical and basolateral (ExPlus) media for 2-4 days before airlift. […] Upon airlift, apical media was removed and basolateral media was changed to PneumaCult-ALI (for large airway cells) or ALI-S (for small airway cells) media (StemCell). […] Media was changed 3 times/week and cells were not transfected until at least 20 days of ALI culture.
In vitro transfection experiments. […] The next day. […] For ALI cultures.

[3] = LNP size by DLS before and after nebulization; assay type: physicochemical; details: nebulized in the presence of bPEG20K and NaAc buffer
Protocol: Nebulization of nanoparticles. For characterizing effects of nebulization on LNP size, encapsulation efficiency, and transfection efficiency, 100 uL of LNPs at 150 ng/uL were loaded into an Aeroneb vibrating mesh nebulizer (Aerogen) and nebulized into 1.5 mL microcentrifuge tubes. Where specified, 2% w/v of excipients were added to the LNP formulation following dialysis and immediately prior to nebulization.

A549 cells = experiment: In vitro FFL mRNA transfection of A549 cells (Bright-Glo); details: microfluidically mixed, nebulized with bPEG20K and NaAc
lung epithelium = experiment: Nebulized Cre mRNA delivery to Ai14 mice, histology count of tdTomato+ airway cells
[4] = nebulized, 1 mg dose, nose cone
[5] = Cre mRNA nebulized over 3 doses
[6] = all cells, Cre mRNA nebulized over 3 doses

Row | Compound | Nebulized lung delivery compared between lipids/NPs (mouse lung) | In vivo performance via nebulization vs C12-200 (mouse lung) | Nebulized delivery in NaAc buffer with bPEG20K vs PBS with no excipient (mouse lung) | Protein expression / mRNA delivery in the nose (nose) | Tolerability of nebulized LNPs [1] | mRNA delivery in small and large airway ALI cultures, lipids and tail/headgroup variants [2] | mRNA delivery to small airway ALI cultures [2] | Lung luminescence (mouse lung; 6 hr after 1 mg dose via nose cone, lipids T1-5 formulated with bPEG20K and NaAc) | Fold improvement of IR-117-17 lung mRNA delivery over NLD1 (mouse lung; [4]) | Improvement of IR-117-17 lung mRNA delivery over polymeric PBAE nanoparticle (mouse lung; [4]) | Average diameter after nebulization [3] | FFL delivery to A549 cells, post-nebulized LNPs (A549 cells) | Small airways with at least 1 transfected cell (lung epithelium; 140/151 airways) | Club cells transfected, large airway (lung epithelium; [5]) | Club cells transfected, small airway (lung epithelium; [5]) | Transfection of large airway cells (average) (lung epithelium; [6]) | Transfection of small airway cells (average) (lung epithelium; [6]) | Transfection of individual stretches of airway (lung epithelium; some stretches)
1 | CCCCCCCC/C=C\CCCCCCCC(=O)OCCCCCC(O)C(CCCCOC(=O)CCCCCCC/C=C\CCCCCCCC)CN(C)CCCn1cccn1 (stereo not drawn) [IR-19-Py, 5-(((3-(1H-pyrazol-1-yl)propyl)(methyl)amino)methyl)-6-hydroxyundecane-1,11-diyl dioleate] | statistically comparable delivery to C12-200 | performed comparably to C12-200 | improves nebulized delivery of both LNPs compared to PBS | significantly outperform state-of-the-art mRNA delivery formulations; also recorded: particularly high and extended protein expression was observed in the nose | no apparent toxicity | outperformed other screened lipids in ALI cultures | excellent performance |  |  |  |  |  |  |  |  |  |  | 
2 | CCCCC/C=C\C/C=C\CCCCCCCC(=O)OCCCCCC(O)C(CCCCOC(=O)CCCCCCC/C=C\C/C=C\CCCCC)CNCCCN(CCCC)CCCC (stereo not drawn) [IR-117-17, 5-(((3-(dibutylamino)propyl)amino)methyl)-6-hydroxyundecane-1,11-diyl (9Z,9′Z,12Z,12′Z)-bis(octadeca-9,12-dienoate)] | significantly outperform state-of-the-art mRNA delivery formulations; also recorded: significantly outperformed C12-200 | outperformed C12-200 | improves nebulized delivery of both LNPs compared to PBS |  | no apparent toxicity | outperformed other screened lipids in ALI cultures | excellent performance | 1.1×10^6 p s^−1 cm^−2 sr^−1 | 300 fold | twofold; also recorded: two-fold | 116 nm | effective | 93% | 8.4% | 7.6% | 10.3% | 8.8% | near-complete transfection
